{"source": "patent US10149472B2", "about": "“Chitin oligomers for use in promoting non-leguminous plant growth and development” (Wisconsin Alumni Research Foundation, priority 2015, dated 2018)", "key": {"[1]": {"tested_on": "M. truncatula", "test": "Lateral root emergence in M. truncatula", "assay_type": "in vivo, Medicago truncatula", "settings": "10^−7 M; fold induction relative to the control; FIG. 7", "experimental": "M. truncatula roots were treated with 10^−7 M CO4 or 10^−7 M NS-LCO and the effect on lateral root emergence was measured. The numbers in parentheses indicate the number of plants analyzed. The significance of the difference to the […] control plants, as measured using a t-test, is indicated. The treatments are measured as fold induction relative to the control. Error bars represent the standard error.\nAccordingly, the disclosed method is limited in scope to treating non-leguminous plants, or seeds, seedlings or plant parts thereof."}, "[2]": {"tested_on": "rice", "test": "Root architecture modification in wild-type rice after submersion treatment", "assay_type": "in vivo, Oryza sativa cv Nipponbare", "settings": "10^−8M, 24 hours submersion, assessed after two weeks, FIG. 3", "experimental": "(§1) Oryza sativa cv Nipponbare wild-type and Tos17 insertion lines in POLLUX (line NC6453) and DMI3 were used for root architecture experiments (12, 13). Seeds were prepared by sterilizing with 2% bleach for 20 minutes, followed by 3, 5-minute rinses with sterile water. The sterile seeds were then imbibed overnight. Seeds were then plated on damp germination paper in Petri plates under sterile conditions and germinated in the dark at 25 degrees for 7 days. Germinated rice plants were then plated on Fahraeus medium on germination paper and grown at 22 degrees under constant light. After 5 days the plants were treated with 10^−8M LCOs and COs for 24 hours by submersion and re-plated onto Fåhræus Medium 1.5% agar plates (0.132 g/L CaCl2, 0.12 g/L MgSO4.7H2O, 0.1 g/L KH2PO4, 0.075 g/L Na2HPO4.2H2O, 5 mg/L Fe-citrate, and 0.07 mg/L each of MnCl2.4H2O, CuSO4.5H2O, ZnCl2, H3BO3, and Na2MoO4.2H2O, adjusted to pH 6.5 before autoclaving). As all signals were suspended in 50% ethanol, the appropriate concentration of ethanol in sterile DI water served as a control. Root system architecture was assessed after 2 weeks.\n(§2) Total lateral roots of rice were enumerated manually two weeks after application of 10^−8M COs and LCOs. As COs and LCOs were suspended in 50% ethanol, the control is sterile deionized water containing the appropriate amount of ethanol. Lateral roots were defined as large and fine lateral roots emerging from crown roots, as well as fine lateral roots emerging from large lateral roots. Root system length was measured starting from the root-shoot junction to the tip of the longest root. The number of crown roots was assessed manually as those roots emerging from the root-shoot junction. Root type characterizations were based upon the descriptions in Gutjahr et al. (19). Data were assessed for normality using the Shapiro-Wilk test (α=0.01), and statistical significance was determined using a paired t-test assuming unequal variances, or a Mann-Whitney-Wilcoxon Test if normality was not observed (α=0.05). All statistical analysis was conducted using the R software package (20)."}, "[3]": {"tested_on": "rice knock-out mutants of pollux and dmi3", "test": "Root architecture modification in rice Ospollux and Osdmi3 mutants", "assay_type": "in vivo, Oryza sativa cv Nipponbare", "settings": "10^−8M; Ospollux and Osdmi3 mutants vs wild-type; FIG. 4", "experimental": "as §1\nas §2, with “Lateral roots were defined as large and fine lateral roots emerging from crown roots, as well as fine lateral roots emerging from large lateral roots.” left out, “Root type characterizations were based upon the descriptions in Gutjahr et al. (19).” left out, “All statistical analysis was conducted using the R software package (20).” left out\nTo assess the role of the common symbiotic pathway in regulating root architecture modifications in response to purified LCOs and COs, we quantified root responses to mycorrhizal signals in rice knock-out mutants of pollux (upstream of calcium spiking) and dmi3 (downstream of calcium spiking)."}, "[4]": {"tested_on": "rice trichoblasts (root hair cells)", "test": "Calcium spiking (YC3.6 imaging) in rice trichoblasts (root hair cells)", "assay_type": "cell-based, Oryza sativa cv Nipponbare", "settings": "10^−5 M, FIG. 5, FIG. 6", "experimental": "Mycorrhizal induced calcium responses were measured as described previously (14). Transgenic Oryza sativa Nipponbare lines carrying Yellow Cameleon 3.6 (YC3.6) FRET-based calcium sensor was used to detect calcium spiking. YC3.6 was imaged on a Nikon Eclipse Ti inverted microscope (Nikon, Japan) equipped with an OptoLED Illuminator (model OptoLED, Cairn Research Ltd, UK). YC3.6 was excited at a wavelength of 455 nm using a royal blue LED and was captured with a charge-coupled device (CCD) camera (model RETIGA-SRV, Qimaging, Canada). Emitted fluorescence was separated by an image splitter with a dichroic mirror (model Optosplit II, Cairn Research Ltd, UK) and then passed through a fluorescence filter set. Images were collected every 5 seconds with 1-second exposure and analyzed using MetaFluor (Molecular Devices, Sunnyvale, Calif., USA).\nBoth LCOs and COs are Required to Induce Calcium Spiking in Trichoblasts. Rhizobia colonize legumes by root hair cells (trichoblasts), whereas AM fungi colonize roots via non-root hair epidermal cells (atrichoblasts). Thus, these different root epidermal cell types may respond differently to COs and LCOs. To test this, we directly compared trichoblast and atrichoblast responses using high concentrations of CO4 in rice. Calcium oscillations observed in rice following treatments of CO4 were restricted to atrichoblasts, with no responses in trichoblasts even with CO4 treatments of 10^−5 M (FIG. 5). This preferential nature of rice atrichoblasts to respond to the AM signals is consistent with a preference for AM fungi to colonize the root via atrichoblasts (26). It is possible that either AM fungi produce signalling molecules other than S-LCO, NS-LCO and CO4 that induce calcium oscillations in rice trichoblasts, or that the mix of signalling molecules is important. To test this, we assessed induction of calcium oscillations by an equimolar mix of 10^−5 M S-LCO, NS-LCO, and CO4."}}, "data": [{"substance": "LCO-IV (C16:0 or C18:1) [NS-LCO]", "values": [{"measurement": "lateral root emergence", "setting": "[1]", "result": "promotion"}, {"measurement": "crown root growth", "setting": "[2]", "result": "promoted"}, {"measurement": "lateral root growth", "setting": "[2]", "result": "promoted"}, {"measurement": "root system length", "setting": "[2]", "result": "enhanced"}, {"measurement": "dependence of overall root length increase on POLLUX / DMI3", "setting": "[3]", "result": "dependent upon both POLLUX and DMI3"}, {"measurement": "calcium spiking in trichoblasts", "setting": "[4]", "result": "did not induce calcium spiking"}]}, {"substance": "LCO-IV (C16:0, S or C18:1, S) [S-LCO]", "values": [{"measurement": "crown root growth", "setting": "[2]", "result": "promoted"}, {"measurement": "lateral root growth", "setting": "[2]", "result": "promoted"}, {"measurement": "calcium spiking in trichoblasts", "setting": "[4]", "result": "did not induce calcium spiking"}]}]}
